Source: ChEMBL document CHEMBL1149262, “Monoamine transporter binding, locomotor activity, and drug discrimination properties of 3-(4-substituted-phenyl)tropane-2-carboxylic acid methyl ester isomers” (J Med Chem, 2004)
Calls of active or inactive are those of the source. No cut-off for these calls is given here.

Key:
Mus musculus [1] = assay: Locomotor activity in CD1 mouse assessed as stimulation at 30 mg/kg, ip after 1 hr relative to control; assay type: functional; settings: route intraperitoneal
Mus musculus [2] = assay: Locomotor activity in ip dosed CD1 mouse in peak hour; assay type: functional
Rattus norvegicus [3] = assay: Cocaine discrimination in ip dosed CD Albino rat; assay type: functional
Rattus norvegicus [4] = assay: Drug discrimination effect in CD Albino rat assessed as percent of rat choosing cocaine lever at 5.6 mg/kg, ip; assay type: functional; settings: route intraperitoneal
Mus musculus [5] = assay: Locomotor activity in CD1 mouse assessed as stimulation at 3 mg/kg, ip after 1 hr relative to control; assay type: functional; settings: route intraperitoneal
Mus musculus [6] = assay: Locomotor activity in CD1 mouse assessed as stimulation at 10 mg/kg, ip after 1 hr relative to control; assay type: functional; settings: route intraperitoneal
Mus musculus [7] = assay: Activity in CD1 mouse assessed as slight or intermittent hyperactivity at 10 mg/kg, ip after 4 hrs; assay type: functional, organism-based; set-up: dose 10 mg/kg
Rattus norvegicus [8] = assay: Drug discrimination effect in CD Albino rat assessed as percent of rat choosing cocaine lever at 10 mg/kg, ip; assay type: functional; settings: route intraperitoneal
Rattus norvegicus [9] = assay: Drug discrimination effect in CD Albino rat assessed as percent of rat choosing cocaine lever at 3 mg/kg, ip; assay type: functional; settings: route intraperitoneal
Rattus norvegicus [10] = assay: Drug discrimination effect in CD Albino rat assessed as percent of rat choosing cocaine lever at 17 mg/kg, ip; assay type: functional; settings: route intraperitoneal
Mus musculus [11] = assay: Locomotor activity in CD1 mouse assessed as stimulation at 100 mg/kg, ip after 2 hrs relative to control; assay type: functional; settings: route intraperitoneal
Mus musculus [12] = assay: Locomotor activity in CD1 mouse assessed as stimulation at 10 mg/kg, ip after 2 hrs relative to control; assay type: functional; settings: route intraperitoneal
[13] = biological target: Sodium-dependent noradrenaline transporter (Homo sapiens, UniProt P23975); assay: Displacement of [3H]nisoxetine from NET
Chain of Sodium-dependent noradrenaline transporter (P23975 whole entry): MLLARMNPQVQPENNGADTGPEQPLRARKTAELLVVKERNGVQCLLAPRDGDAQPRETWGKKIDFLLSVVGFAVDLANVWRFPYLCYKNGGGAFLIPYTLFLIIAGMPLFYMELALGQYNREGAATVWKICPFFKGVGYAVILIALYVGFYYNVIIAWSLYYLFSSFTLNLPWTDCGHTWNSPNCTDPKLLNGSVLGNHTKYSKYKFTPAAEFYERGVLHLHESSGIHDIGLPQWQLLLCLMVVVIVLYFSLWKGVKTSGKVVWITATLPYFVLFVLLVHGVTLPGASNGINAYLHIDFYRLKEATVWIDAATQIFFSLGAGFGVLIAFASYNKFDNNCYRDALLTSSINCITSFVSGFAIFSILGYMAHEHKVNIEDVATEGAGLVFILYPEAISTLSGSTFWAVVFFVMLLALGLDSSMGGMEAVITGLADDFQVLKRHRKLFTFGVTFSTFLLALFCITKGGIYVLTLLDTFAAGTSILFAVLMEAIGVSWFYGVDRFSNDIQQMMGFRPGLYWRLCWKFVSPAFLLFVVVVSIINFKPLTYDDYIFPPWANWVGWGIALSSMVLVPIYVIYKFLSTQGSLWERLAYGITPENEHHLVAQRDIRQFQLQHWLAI

Mus musculus [14] = assay: Locomotor activity in CD1 mouse assessed as stimulation at 30 mg/kg, ip after 3 hrs relative to control; assay type: functional; settings: route intraperitoneal
Mus musculus [15] = assay: Locomotor activity in CD1 mouse assessed as stimulation at 3 mg/kg, ip after 2 hrs relative to control; assay type: functional; settings: route intraperitoneal
Mus musculus [16] = assay: Activity in CD1 mouse assessed as stereotypy at 100 mg/kg, ip after 4 hrs; assay type: functional, organism-based; set-up: dose 100 mg/kg
Rattus norvegicus [17] = assay: Drug discrimination effect in CD Albino rat assessed as percent of rat choosing cocaine lever at 30 mg/kg, ip; assay type: functional; settings: route intraperitoneal
[18] = biological target: Sodium-dependent dopamine transporter (Homo sapiens, UniProt Q01959); assay: Displacement of [3H]WIN-35428 from DAT
Chain of Sodium-dependent dopamine transporter (Q01959 whole entry): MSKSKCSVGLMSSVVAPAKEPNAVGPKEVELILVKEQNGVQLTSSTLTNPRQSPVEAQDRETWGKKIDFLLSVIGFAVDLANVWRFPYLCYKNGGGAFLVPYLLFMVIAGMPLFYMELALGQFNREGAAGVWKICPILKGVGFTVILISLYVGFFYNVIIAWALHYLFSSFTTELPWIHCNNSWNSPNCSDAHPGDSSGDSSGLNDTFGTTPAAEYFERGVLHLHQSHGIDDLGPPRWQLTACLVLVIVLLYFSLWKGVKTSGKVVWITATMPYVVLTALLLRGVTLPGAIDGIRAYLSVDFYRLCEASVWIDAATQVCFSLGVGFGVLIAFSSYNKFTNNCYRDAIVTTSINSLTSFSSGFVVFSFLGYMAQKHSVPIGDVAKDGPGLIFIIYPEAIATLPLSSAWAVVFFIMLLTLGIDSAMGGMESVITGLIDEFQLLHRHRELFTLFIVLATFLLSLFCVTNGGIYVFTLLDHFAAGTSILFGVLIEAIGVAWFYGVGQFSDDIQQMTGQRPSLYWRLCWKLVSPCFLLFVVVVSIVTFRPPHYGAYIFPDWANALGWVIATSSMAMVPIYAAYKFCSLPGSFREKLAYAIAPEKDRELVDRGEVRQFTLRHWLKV

Mus musculus [19] = assay: Activity in CD1 mouse assessed as circling at 100 mg/kg, ip after 4 hrs; assay type: functional, organism-based; set-up: dose 100 mg/kg
Mus musculus [20] = assay: Locomotor activity in CD1 mouse assessed as stimulation at 100 mg/kg, ip after 3 hrs relative to control; assay type: functional; settings: route intraperitoneal
Mus musculus [21] = assay: Locomotor activity in CD1 mouse assessed as stimulation at 3 mg/kg, ip after 4 hrs relative to control; assay type: functional; settings: route intraperitoneal
Mus musculus [22] = assay: Activity in CD1 mouse assessed as hyperactivity at 100 mg/kg, ip after 4 hrs; assay type: functional, organism-based; set-up: dose 100 mg/kg
Mus musculus [23] = assay: Locomotor activity in CD1 mouse assessed as stimulation at 3 mg/kg, ip after 3 hrs relative to control; assay type: functional; settings: route intraperitoneal
Rattus norvegicus [24] = assay: Drug discrimination effect in CD Albino rat assessed as percent of rat choosing cocaine lever at 1.7 mg/kg, ip; assay type: functional; settings: route intraperitoneal
Rattus norvegicus [25] = assay: Drug discrimination effect in CD Albino rat assessed as percent of rat choosing cocaine lever at 1 mg/kg, ip; assay type: functional; settings: route intraperitoneal
Mus musculus [26] = assay: Locomotor activity in CD1 mouse assessed as stimulation at 10 mg/kg, ip after 4 hrs relative to control; assay type: functional; settings: route intraperitoneal
Mus musculus [27] = assay: Locomotor activity in CD1 mouse assessed as stimulation at 100 mg/kg, ip after 1 hr relative to control; assay type: functional; settings: route intraperitoneal
Mus musculus [28] = assay: Locomotor activity in CD1 mouse assessed as stimulation at 100 mg/kg, ip after 4 hrs relative to control; assay type: functional; settings: route intraperitoneal
Mus musculus [29] = assay: Locomotor activity in CD1 mouse assessed as stimulation at 30 mg/kg, ip after 2 hrs relative to control; assay type: functional; settings: route intraperitoneal
Mus musculus [30] = assay: Locomotor activity in CD1 mouse assessed as stimulation at 10 mg/kg, ip after 3 hrs relative to control; assay type: functional; settings: route intraperitoneal
Mus musculus [31] = assay: Locomotor activity in CD1 mouse assessed as stimulation at 30 mg/kg, ip after 4 hrs relative to control; assay type: functional; settings: route intraperitoneal
Mus musculus [32] = assay: Locomotor activity in CD1 mouse assessed as stimulation at 1 mg/kg, ip after 3 hrs relative to control; assay type: functional; settings: route intraperitoneal
Mus musculus [33] = assay: Locomotor activity in CD1 mouse assessed as stimulation at 1 mg/kg, ip after 2 hrs relative to control; assay type: functional; settings: route intraperitoneal
Mus musculus [34] = assay: Activity in CD1 mouse assessed as stimulation at 10 mg/kg, ip after 4 hrs; assay type: functional, organism-based; set-up: dose 10 mg/kg
Mus musculus [35] = assay: Activity in CD1 mouse assessed as death at 100 mg/kg, ip after 4 hrs; assay type: functional, organism-based; set-up: dose 100 mg/kg
Mus musculus [36] = assay: Activity in CD1 mouse assessed as convulsions at 100 mg/kg, ip after 4 hrs; assay type: functional, organism-based; set-up: dose 100 mg/kg
Mus musculus [37] = assay: Locomotor activity in CD1 mouse assessed as stimulation at 1 mg/kg, ip after 1 hr relative to control; assay type: functional; settings: route intraperitoneal
Mus musculus [38] = assay: Activity in CD1 mouse assessed as ataxia at 100 mg/kg, ip after 4 hrs; assay type: functional, organism-based; set-up: dose 100 mg/kg
Mus musculus [39] = assay: Activity in CD1 mouse assessed as tremor at 100 mg/kg, ip after 4 hrs; assay type: functional, organism-based; set-up: dose 100 mg/kg
Mus musculus [40] = assay: Locomotor activity in CD1 mouse assessed as stimulation at 1 mg/kg, ip after 4 hrs relative to control; assay type: functional; settings: route intraperitoneal
Mus musculus [41] = assay: Activity in CD1 mouse assessed as straub tail at 100 mg/kg, ip after 4 hrs; assay type: functional, organism-based; set-up: dose 100 mg/kg

Structure (SMILES)	Activity (Mus musculus [1]) [%]	ED50 (Mus musculus [2]) [mg/kg]	ED50 (Rattus norvegicus [3]) [mg/kg]	Activity (Rattus norvegicus [4]) [%]	Activity (Mus musculus [5]) [%]	Activity (Mus musculus [6]) [%]	Activity (Rattus norvegicus [8]) [%]	Activity (Rattus norvegicus [9]) [%]	Activity (Mus musculus [12]) [%]	Activity (Mus musculus [14]) [%]	Activity (Mus musculus [15]) [%]	Activity (Mus musculus [16])	IC50 [18] [nM]	Activity (Mus musculus [19])	Activity (Mus musculus [21]) [%]	Activity (Mus musculus [23]) [%]	Activity (Mus musculus [26]) [%]	Activity (Mus musculus [29]) [%]	Activity (Mus musculus [30]) [%]	Activity (Mus musculus [31]) [%]	further results
COC(=O)[C@@H]1C2CCC(C[C@H]1c1ccc(C)cc1)N2C (some centres not stated)	482	14.7	7.73	43	28	294	43	29	149	5	29	Active	10.2	Active	-41	-6	22	147	108	-66	Activity (Mus musculus [7]): Active; Activity (Rattus norvegicus [10]): 75%; Activity (Mus musculus [11]): 436%; IC50 [13]: 270 nM; Ki [13]: 160 nM; Activity (Rattus norvegicus [17]): 100%; Activity (Mus musculus [20]): 263%; Activity (Mus musculus [22]): Active; Activity (Rattus norvegicus [24]): 14%; Activity (Rattus norvegicus [25]): 0%; Activity (Mus musculus [27]): 843%; Activity (Mus musculus [28]): 18%
COC(=O)[C@H]1C2CCC(C[C@@H]1c1ccc(Cl)cc1)N2C (some centres not stated)	154	4.3	4.07	88	68	248	67	13	1003	911	188	Active	25	Active	15	92	667	493	1275	794	Activity (Mus musculus [32]): 83%; Activity (Mus musculus [33]): 50%; Activity (Mus musculus [34]): Active; Activity (Mus musculus [35]): Active; Activity (Mus musculus [36]): Active; Activity (Mus musculus [37]): 15%; Activity (Mus musculus [38]): Active; Activity (Mus musculus [39]): Active; Activity (Mus musculus [40]): 62%; Activity (Mus musculus [41]): Active
